Values of other authors in patent US20020081339A1, “Treatment of inoperable tumors by stereotactic injection of microspheres” (priority 2000, published 2002).

Details: hydrophilic molecule

Structure (SMILES): O=c1[nH]cc(F)c(=O)[nH]1 [5-FU, 5-fluorouracil]
- crossing of the blood-brain barrier: crosses the blood-brain barrier very weakly
